{"source": "patent US5977116A", "about": "“Piperazine, piperidine and tetrahydropyridine derivatives” (Merck Sharp & Dohme Ltd., priority 1995, dated 1999)", "origin": "cited, not measured here", "test_system": "human 5-HT1Dα and 5-HT1Dβ receptor subtypes", "details": "cf. WO-A-91/17174, Table 1"}
{"smiles": "CNS(=O)(=O)Cc1ccc2[nH]cc(CCN(C)C)c2c1", "note": "[sumatriptan]", "values": [{"measurement": "discrimination between human 5-HT1Dα and 5-HT1Dβ receptor subtypes", "value": "barely discriminates"}]}
